The test system of series [1] is Stage III-V gametocytes (blood stage P. falciparum parasites). Nature of the series: In vitro drug activity on gametocytes (AlamarBlue viability assay). The format is cell-based, Plasmodium falciparum. The note with it: P. falciparum stage III-V gametocytes, 72 h incubation, AlamarBlue; read-out: Gametocyte EC50. As to the method: Cell culture. Asexual parasites of P. falciparum strain 3D7 were cultured as described previously [Trager W, et al., Journal of Parasitology 2005, 91: 484-486], Stage III-V gametocytes were selected and enriched with 3-day treatment with 50 mM N-acetylglucosamine (NAG) and the following Percoll density gradient centrifugation after gametocyte production [Tanaka T Q, et al., Molecular and Biochemical Parasitology, 2011, 111: 160-163], Gametocytes of HB3 and Dd2 strains were produced and then set up for assay in a similar process. HepG2 cells (ATCC, cat. no. 77400) were cultured in 175-cm^2 tissue culture flasks with 30 ml growth medium at 37° C. in a 5% CO2 humidified atmosphere. Growth medium was made with Dulbecco's Modified Eagle Medium with 10% fetal bovine serum (FBS). Growth medium was replaced every other day and cells were passed at 75% confluence.
Compound screening experiments were performed as previously described [Tanaka T Q et al., Molecular and Biochemical Parasitology, 2013, 3188: 20-25], Briefly, 2.5 μl/well incomplete medium was dispensed into each well of 1,536-well plates using the Multidrop Combi followed by 23 nl compound transferring using the NX-TR Pintool (WAKO Scientific Solutions, San Diego, Calif.). 2.5 μl/well of gametocytes was dispensed with a seeding density of 20,000 cells/well using the Multidrop Combi. The assay plates were incubated for 72 h at 37° C. with 5% CO2. After addition of 5 μl/well of 2× AlamarBlue dye (Life Technologies, cat. no. DALI 100), the plates were incubated for 24 h at 37° C. with 5% CO2 and were read in a fluorescence detection mode (Ex=525 nm, Em=598 nm) on a ViewLux plate reader (PerkinElmer).
Stage III-V gametocytes (blood stage P. falciparum parasites) were enriched with treatment with 50 mM N-acetylglucosamine (NAG) and Percoll density gradient centrifugation as described previously^1. Briefly, 2.5 μl/well incomplete medium was dispensed into each well of 1,536-well plates using the Multidrop Combi followed by 23 nl compound transfer using the NX-TR Pintool (WAKO Scientific Solutions, San Diego, Calif.). Then, 2.5 μl/well of gametocytes was dispensed with a seeding density of 20,000 cells/well using the Multidrop Combi. The assay plates were incubated for 72 h at 37° C. with 5% CO2. After addition of 5 μl/well of 2× AlamarBlue dye (Life Technologies, cat. no. DALI 100), the plates were incubated for 24 h at 37° C. with 5% CO2 and then were read in a fluorescence detection mode (Ex=525 nm, Em=598 nm) on a ViewLux plate reader (PerkinElmer).
A general note: Resazurin is reduced to fluorescent resorufin, in cell work by metabolically active cells.

The test system of series [2] is Asexual parasites of P. falciparum strain 3D7. Put plainly: In vitro drug activity on asexual parasites (SYBR Green assay). The format is cell-based, Plasmodium falciparum. Summed up: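 3D7 parasites at 0.5% parasitemia and 2% hematocrit were exposed to drugs (DMSO ≤0.5%) for 72 h under standard culture conditions, in duplicate. After freeze-thaw lysis, SYBR Green I lysis buffer was added for 30 min at room temperature, and fluorescence was read at 490/520 nm.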

Another series can be described thus: Solubility at pH 7.4. The format is physicochemical.
Series [3] in a line: Microsomal stability (rat). The series is classed as in vitro ADME. The note with it: rat microsomes.
A further series deals with mTOR (Homo sapiens, UniProt P42345). Put plainly: mTOR activity (no method described). The series is classed as biochemical.
Another series can be described thus: PAMPA permeability. The series is classed as in vitro ADME. (In PAMPA a lipid-coated filter parts donor from acceptor wells.)
[4] abbreviates: P. falciparum 3D7 asexual parasites, 72 h, SYBR Green.

Where two headings read alike, the source gives them in different places. A value given as a limit tells only on which side of the number the result lay.

The EC50 is the concentration that produces a half-maximal response. Consider `N#Cc1cccc(-n2c(=O)ccc3cnc4ccc(-c5ccc(Cl)cc5)cc4c32)c1` [Compound 1], for which the EC50 is 88.8 nM in series [1] and 27.9 nM in series [2] (setting [4]).
In the case of `N#Cc1cc(-n2c(=O)ccc3cnc4ccc(-c5ccc(Cl)cc5)cc4c32)ccc1N1CCOCC1` [Compound 6], in series [1], the EC50 turned out to be 102 nM. Also, in the series “Solubility at pH 7.4”, the “Sol @ pH 7.4 (ug/mL)” value is 0.02 ug/mL.
Regarding `Cc1ccc(C#N)cc1-n1c(=O)ccc2cnc3ccc(-c4ccc(CN(C)C)cc4)cc3c21` [Compound 7], the EC50 in series [1] was 25.1 nM; in series [2] (setting [4]), 13.1 nM. Besides, in the series “Solubility at pH 7.4”, the “Sol @ pH 7.4 (ug/mL)” value is on record as greater than 66.00 ug/mL.
Consider `Cc1c(C#N)cccc1-n1c(=O)ccc2cnc3ccc(-c4ccc(CN(C)C)cc4)cc3c21` [Compound 10], for which the values for the EC50 in series [1] and in series [2] (setting [4]) were 469 nM and 72.2 nM, respectively. The “Microsomal Stability (rat) T1/2” value in series [3] amounted to 18 min. Moreover, the “Sol @ pH 7.4 (ug/mL)” value in “Solubility at pH 7.4” is greater than 66 ug/mL.
In the case of `COc1ccc(C#N)cc1-n1c(=O)ccc2cnc3ccc(-c4ccc(Cl)cc4)cc3c21` [Compound 12], the EC50 in series [1] amounted to 126 nM; in series [2] (setting [4]), 55.8 nM.
As to `COc1ccc(C#N)cc1-n1c(=O)ccc2cnc3ccc(-c4ccc(F)cc4)cc3c21` [Compound 13], the concentration for a half-maximal effect (EC50) in series [1] came out at 135 nM; in series [2] (setting [4]) it was 80.4 nM. Also, in “Solubility at pH 7.4”, the “Sol @ pH 7.4 (ug/mL)” value is recorded as 0 ug/mL.
Consider `COc1ccc(C#N)cc1-n1c(=O)ccc2cnc3ccc(-c4ccc(CN(C)C)cc4)cc3c21` [Compound 14], for which the 50% effective concentration (EC50) in series [1] came out at 425 nM; in series [2] (setting [4]), 113 nM.
`N#Cc1cc(-n2c(=O)ccc3cnc4ccc(-c5ccc(F)cc5)cc4c32)ccc1N1CCNCC1` [Compound 15]: the figures for the half-maximal effective concentration (EC50) in series [1] and in series [2] (setting [4]) were 521 nM and 730 nM, respectively.
On to `N#Cc1cc(-n2c(=O)ccc3cnc4ccc(-c5ccc(Cl)cc5)cc4c32)ccc1N1CCNCC1` [Compound 16], for which the EC50 in series [1] was 69.4 nM; in series [2] (setting [4]), 23.7 nM.
Take `N#Cc1ccc(-n2c(=O)ccc3cnc4ccc(-c5ccc(N)nc5)cc4c32)cc1` [Compound 22]: the EC50 in series [1] was determined as 115 nM; in series [2] (setting [4]), 34.6 nM. Moreover, in series [3], the “Microsomal Stability (rat) T1/2” value is recorded as greater than 30.0 min. In the series “Solubility at pH 7.4”, the “Sol @ pH 7.4 (ug/mL)” value is less than 1.0 ug/mL.
For `CS(=O)(=O)c1ccc(-n2c(=O)ccc3cnc4ccc(-c5ccc(Cl)c(O)c5)cc4c32)cc1` [Compound 26], in that order: 178 nM, 37.8 nM, greater than 30.0 min and 1.2 ug/mL.
For `CS(=O)(=O)c1ccc(-n2c(=O)ccc3cnc4ccc(-c5ccc(F)cc5)cc4c32)cc1` [Compound 29], in that order: 88.5 nM, 19.8 nM, greater than 30.0 min and less than 1.0 ug/mL.
With `CCN(CC)S(=O)(=O)c1ccc(-n2c(=O)ccc3cnc4ccc(-c5ccc(Cl)cc5)cc4c32)cc1` [Compound 39], the EC50 in series [1] turned out to be 426 nM; in series [2] (setting [4]), 414 nM. Besides, in series [3], the “Microsomal Stability (rat) T1/2” value is recorded as 1.7 min. The “Sol @ pH 7.4 (ug/mL)” value in “Solubility at pH 7.4” is on record as less than 1.0 ug/mL.
The matching figures for `CCNS(=O)(=O)c1ccc(-n2c(=O)ccc3cnc4ccc(-c5ccc(Cl)cc5)cc4c32)cc1` [Compound 41]: 89.4 nM, 23.1 nM, 6.3 min and less than 1.0 ug/mL.
With `CN(C)Cc1ccc(-c2ccc3ncc4ccc(=O)n(-c5ccc(S(C)(=O)=O)c(Cl)c5)c4c3c2)cc1` [Compound 63], the results for the concentration giving a half-maximal response (EC50) in series [1] and in series [2] (setting [4]) were 342 nM and 147 nM, respectively.
For `Nc1ccc(-c2ccc3ncc4ccc(=O)n(-c5ccc(S(=O)(=O)NC6CC6)cc5)c4c3c2)cn1` [Compound 82], in that order: 167 nM and 150 nM.
Regarding `Cc1cc(C(=O)NCCN(C)c2ccccc2)ccc1-n1c(=O)ccc2cnc3ccc(-c4ccc(Cl)cc4)cc3c21` [Compound 292], in series [2], the EC50 came out at 1140 nM. This molecule also showed a mTOR on mTOR of 15.56 µM. For the same molecule, the “Microsomal Stability (rat) T1/2” value in series [3] is given as 1.7 min. Also, the “Sol @ pH 7.4” value in “Solubility at pH 7.4” stood at 0 ug/mL. This molecule also had a PAMPA Permeability in “PAMPA permeability” of 3.4 ×10⁻⁶ cm/s.
For `Cc1cc(C(=O)NCCN2CCC2)ccc1-n1c(=O)ccc2cnc3ccc(-c4ccc(Cl)cc4)cc3c21` [Compound 293], in that order: 146 nM, 6.103 µM, 22.9 min, 0 ug/mL and 241 ×10⁻⁶ cm/s.
For `Cc1cc(C(=O)NCCN2CCCC2)ccc1-n1c(=O)ccc2cnc3ccc(-c4ccc(Cl)cc4)cc3c21` [Compound 295], in that order: 162 nM, 23.74 µM, 10.6 min, 0 ug/mL and 639 ×10⁻⁶ cm/s.
The molecule `Cc1cc(C(=O)NCCN2CCCC2)ccc1-n1c(=O)ccc2cnc3ccc(-c4ccc(F)cc4)cc3c21` [Compound 296] showed an EC50 in series [2] of 477 nM. In addition, the mTOR on mTOR was determined as 18.6 µM. The “Microsomal Stability (rat) T1/2” value in series [3] is 7.1 min. In addition, the “Sol @ pH 7.4” value in “Solubility at pH 7.4” amounted to 0 ug/mL. Moreover, the PAMPA Permeability in “PAMPA permeability” is 510 ×10⁻⁶ cm/s.
The matching figures for `Cc1cc(C(=O)NCCCN2CCOCC2)ccc1-n1c(=O)ccc2cnc3ccc(-c4ccc(F)cc4)cc3c21` [Compound 297]: 150 nM, 11.02 µM, 1.6 min, 0 ug/mL and 936 ×10⁻⁶ cm/s.
`CN(CCNC(=O)c1ccc(-n2c(=O)ccc3cnc4ccc(-c5ccc(Cl)cc5)cc4c32)cc1)c1ccccc1` [Compound 298]: the EC50 in series [2] stood at 950 nM. On mTOR, this molecule displayed a mTOR of 50 µM. The “Microsomal Stability (rat) T1/2” value in series [3] is on record as 1.5 min. The “Sol @ pH 7.4” value in the series “Solubility at pH 7.4” is given as 0 ug/mL. Besides, the PAMPA Permeability in the series “PAMPA permeability” is 148 ×10⁻⁶ cm/s.
Consider `COC(=O)CN1Cc2cc(-n3c(=O)ccc4cnc5ccc(-c6ccc(Cl)cc6)cc5c43)ccc2C1=O` [Compound 345], for which, in series [1], the EC50 came to 3830 nM. In series [3], the “Microsomal Stability (rat) T1/2” value is recorded as less than 1.0 min.
Regarding `O=C1Cc2cc(-n3c(=O)ccc4cnc5ccc(-c6ccc(Cl)cc6)cc5c43)ccc2N1` [Compound 346], the concentration giving a half-maximal response (EC50) in series [1] turned out to be 48.4 nM; in series [2] (setting [4]) it was 18.6 nM.
For the molecule `CN(C)Cc1ccc(-c2ccc3ncc4ccc(=O)n(-c5ccc6c(c5)CC(=O)N6)c4c3c2)cc1` [Compound 350], the EC50 was 1000 nM in series [1] and 546 nM in series [2] (setting [4]). For the same molecule, the “Sol @ pH 7.4 (ug/mL)” value in the series “Solubility at pH 7.4” is reported as greater than 68.0 ug/mL.
In the case of `CCN1Cc2cc(-n3c(=O)ccc4cnc5ccc(-c6ccc(Cl)cc6)cc5c43)ccc2C1=O` [Compound 351], the EC50 in series [1] was 2160 nM; in series [2] (setting [4]), 156 nM.
As to `O=C1Cc2ccc(-n3c(=O)ccc4cnc5ccc(-c6ccc(Cl)cc6)cc5c43)cc2N1` [Compound 376], the EC50 in series [1] was 199 nM; in series [2] (setting [4]), 115 nM. Also, the “Sol @ pH 7.4 (ug/mL)” value in the series “Solubility at pH 7.4” is given as 0 ug/mL.
Regarding `NCCc1ccc(-c2ccc3ncc4ccc(=O)n(-c5ccc6c(c5)CNC6=O)c4c3c2)cc1` [Compound 377], in series [1], the EC50 amounted to 384 nM. In addition, in the series “Solubility at pH 7.4”, the “Sol @ pH 7.4 (ug/mL)” value came to 0 ug/mL.
With `CN(C)CC#Cc1ccc2ncc3c(c2c1)n(-c1cccc(C#N)c1)c(=O)n3C` [Compound 396], the concentration for a half-maximal effect (EC50) in series [2] was found to be 144 nM. The mTOR on mTOR turned out to be 15.14 µM. For the same molecule, the “Microsomal Stability (rat) T1/2” value in series [3] is recorded as greater than 30 min. Besides, the “Sol @ pH 7.4” value in the series “Solubility at pH 7.4” came to 46.4 ug/mL. Further, in the series “PAMPA permeability”, the PAMPA Permeability was 208 ×10⁻⁶ cm/s.
Regarding `Cn1c(=O)n(-c2ccc(C(=O)O)cc2)c2c3cc(-c4ccc(Cl)cc4)ccc3ncc21` [Compound 435], in series [2], the EC50 was found to be 3660 nM. The mTOR on mTOR turned out to be 0.3646 µM. In series [3], the “Microsomal Stability (rat) T1/2” value was greater than 30 min. Besides, the “Sol @ pH 7.4” value in the series “Solubility at pH 7.4” is 30.8 ug/mL. This molecule also returned a PAMPA Permeability in “PAMPA permeability” of 11 ×10⁻⁶ cm/s.

For the origin of these results see patent US11753408B2, “Compounds and method for blocking transmission of malarial parasite” (The United States of America, as represented by the …, priority 2016, dated 2023).
